Here are results for one compound from patent EP2450062A1, “HYDROCOLLOID PLASTERS, INCLUDING VIABLE PROBIOTIC STRAINS OF LACTOBACILLUS SPP. AND USED FOR VARIOUS TYPES OF WOUNDS, INFECTED TISSUES, DRY WOUNDS AND DEEP WOUNDS” (Universidad De Concepcion, priority 2009, dated 2011).

In this experiment the test system is Lactobacillus acidophilus LPV 31. Kind of experiment: bactericidal effect of glutaraldehyde in the films (bacterial counts). Particulars: GA concentrations studied, in gelatin films. From the text: The cross-linking agent used is preferably, but not exclusively, glutaraldehyde (GA), due to its high efficiency stabilising collagen derivatives, its high reaction rate, and its ability to modify the physico-chemical properties of gelatin-based gels.

Regarding `O=CCCCC=O` [GA, glutaraldehyde], the bactericidal effect entry is listed as “do not have an observable bactericidal effect”.
